Results as given in PubChem BioAssay (NCI).
Where “and” joins values, the source holds several entries; their conditions need not be identical. Identical values can stand only once.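 These data come from cells grown in 96-well plates and exposed to compound for 48 hours at five concentrations. GI50 = concentration required for 50% inhibition of growth. TGI: total growth inhibition.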

What was measured:
Assay in all cases: NCI-60 cell line screen, 48 h
HCC-2998 colon = tested on: HCC-2998 colon
MDA-MB-435 = tested on: MDA-MB-435
UO-31 renal = tested on: UO-31 renal
SF-268 CNS = tested on: SF-268 CNS
A498 renal = tested on: A498 renal
PC-3 prostate = tested on: PC-3 prostate
786-0 renal = tested on: 786-0 renal
UACC-62 melanoma = tested on: UACC-62 melanoma
KM12 colon = tested on: KM12 colon
BT-549 breast = tested on: BT-549 breast

SMILES	GI50 (HCC-2998 colon)	TGI (HCC-2998 colon)	GI50 (MDA-MB-435)	TGI (MDA-MB-435)	GI50 (UO-31 renal)	TGI (UO-31 renal)	GI50 (SF-268 CNS)	TGI (SF-268 CNS)	GI50 (A498 renal)	TGI (A498 renal)	GI50 (PC-3 prostate)	TGI (PC-3 prostate)	GI50 (786-0 renal)	TGI (786-0 renal)	GI50 (UACC-62 melanoma)	TGI (UACC-62 melanoma)	GI50 (KM12 colon)	TGI (KM12 colon)	GI50 (BT-549 breast)	TGI (BT-549 breast)
CC(=O)[O][Hg][c]1ccccc1	1.64 µM	3.11 µM	0.808 µM	2.19 µM	1.23 µM	2.54 µM	1.14 µM	2.64 µM	1.11 µM	2.37 µM	1.41 µM	3.21 µM	1.43 µM	2.82 µM	0.587 µM	1.91 µM	1.6 µM	3.04 µM	0.453 µM	1.66 µM
C=C1C(=O)O[C@H]2[C@H]1CC/C(COC(=O)c1ccc(C#N)cc1)=C\CC[C@@]1(C)O[C@@H]21	4.1 µM	14.3 µM	1.96 µM	4.53 µM	1.57 µM	3.34 µM	2.2 µM	5.09 µM	15.4 µM	30 µM	3.97 µM	15.6 µM	1.92 µM	3.99 µM	1.95 µM	4.33 µM	3.94 µM	14.8 µM	1.44 µM	3.15 µM
N#Cc1ccc(C(c2ccc(C#N)cc2)n2cncn2)cc1	> 5000 µM	> 5000 µM	> 5000 µM	> 5000 µM	60.8 µM and 119 µM	> 5000 µM	> 5000 µM	> 5000 µM		> 5000 µM	> 5000 µM	> 5000 µM	> 5000 µM	> 5000 µM	51.5 µM		> 5000 µM	> 5000 µM		> 5000 µM
Cc1nc2n(c(=O)c1CCN1CCC(c3noc4cc(F)ccc34)CC1)CCCC2	> 50 µM	> 50 µM	> 50 µM	> 50 µM	> 50 µM	> 50 µM	> 50 µM	> 50 µM	> 50 µM	> 50 µM	> 50 µM	> 50 µM	> 50 µM	> 50 µM	> 50 µM	> 50 µM	> 50 µM	> 50 µM	> 50 µM	> 50 µM
O=C(O)c1ccc2c(c1)nc(Nc1cccc(Cl)c1)c1ccncc12	2.53 µM and 4.02 µM	15.1 µM and > 10 µM	2.67 µM and 3.01 µM	> 31.6 µM	3.79 µM and 2.86 µM	14 µM and > 10 µM	3.52 µM and 3.85 µM	> 77.4 µM	0.231 µM and 1.99 µM	2.46 µM and 6.66 µM	2.88 µM and 3.57 µM	22 µM and > 10 µM	3.7 µM and 4.2 µM	18.6 µM and > 10 µM	1.82 µM	6.16 µM	3.43 µM and 4.43 µM	18.1 µM and > 10 µM	2.48 µM and 2.29 µM	10.9 µM and 8.33 µM
O=C(CCCCCCSc1nc(-c2ccc(Cl)cc2)cc(-c2ccc(Cl)cc2)n1)NO	4.64 µM	17 µM	1.86 µM	13.6 µM	0.735 µM	2.42 µM	1.7 µM	7.49 µM	1.03 µM	4.05 µM	1.54 µM	16.3 µM	1.59 µM	6.32 µM	1.26 µM	4.18 µM	2.02 µM	> 50 µM	1.92 µM	36.2 µM
Nc1nc(N)c2nc(CNc3ccc(C(=O)NC(CCCNC(=O)c4ccccc4C(=O)O)C(=O)O)cc3)cnc2n1 (configuration not stated)	0.00132 µM	> 100 µM		> 100 µM	0.00532 µM	> 100 µM		> 100 µM		> 100 µM		> 100 µM	0.00054 µM	> 100 µM	< 0.01 µM and 0.00129 µM	> 100 µM	< 0.01 µM and 0.00297 µM	> 100 µM		> 100 µM
Cc1nc(N)sc1C(=O)Nc1cc(C(=O)NCCCN(C)C)n(C)c1	> 100 µM	> 100 µM	> 100 µM	> 100 µM	> 100 µM	> 100 µM	> 100 µM	> 100 µM	> 100 µM	> 100 µM	> 100 µM	> 100 µM	> 100 µM	> 100 µM	> 100 µM	> 100 µM	> 100 µM	> 100 µM	76.7 µM	> 100 µM
N[C@@H]1CCCN(c2c(/C=C3\SC(=O)NC3=O)cccc2-c2ccccc2)C1	14.1 µM	28.6 µM	11.4 µM	24.3 µM	12.7 µM	27.3 µM	16.1 µM	33.2 µM	1.5 µM	18.8 µM	10.2 µM	25.2 µM	15.4 µM	29.8 µM	13.7 µM	27.3 µM	14.2 µM	28.9 µM	11.5 µM	24.1 µM
CCc1nc(N)nc(N)c1-c1ccc(NCCc2ccccc2)c([N+](=O)[O-])c1		11.3 µM		> 73 µM		> 51.4 µM		> 62.5 µM		43.4 µM		> 71.6 µM		17 µM		15.8 µM		> 57 µM		42.9 µM
Cc1ccc(S(=O)(=O)Cc2nc(-c3ccc(C(=O)NCc4cccnc4)cc3)oc2C)cc1	18.4 µM	> 100 µM	0.054 µM	12 µM	23.7 µM	> 100 µM	19 µM	> 100 µM	> 100 µM	> 100 µM	0.224 µM	> 100 µM	20 µM	> 100 µM	> 91.2 µM	> 100 µM	0.266 µM	> 100 µM	3.37 µM	> 100 µM
COc1ccc(-c2csc(-c3cc(Cl)cc(Cl)c3Cl)n2)cc1	44.6 µM	> 100 µM	21.8 µM	> 100 µM	> 100 µM	> 100 µM	58 µM	> 100 µM	> 100 µM	> 100 µM	52.2 µM	> 100 µM	> 100 µM	> 100 µM	41.9 µM	> 100 µM	48.1 µM	> 100 µM	92.2 µM	> 100 µM
O=C(c1ccccc1)c1nc2ccc(C(F)(F)F)cc2[n+]([O-])c1C(F)(F)F	30.1 µM	> 100 µM	43.8 µM	> 100 µM	23.8 µM	> 100 µM	39.9 µM	> 100 µM	13.2 µM	45.2 µM	24.5 µM	> 100 µM	48 µM	> 100 µM	33.7 µM	> 100 µM	37.3 µM	> 100 µM	31.5 µM	> 100 µM
